# Test results from patent US8912336B2, “Aryl and heteroaryl sulfones as mGluR4 allosteric potentiators, compositions, and methods of treating neurological dysfunction” (Vanderbilt University, priority 2009, dated 2014).
# Target: T1, human mGluR4 (Homo sapiens, UniProt Q14833)
# T1 construct: expressed in transfected cells; host or cells: Chinese Hamster Ovary (CHO) cells
# Experiment: Potentiation of human mGluR4 in transfected CHO cells, Ca2+-sensitive fluorescent dye, EC20 agonist
# Type: cell-based
# Conditions: values in E-notation, unit inferred, read-out: hEC50
# Experimental: The disclosed compounds and compositions can be evaluated for their ability to act as a potentiator of metabotropic glutamate receptor activity, in particular mGluR4 activity, by any suitable known methodology known in the art. For example, Chinese Hamster Ovary (CHO) cells transfected with human mGluR4 or HEK cells co-transfected with rat mGluR4 and the G-protein regulated Inwardly Rectifying Potassium channel (GIRK) were plated in clear bottom assay plates for assay in a Hamamatsu FDSS Fluorometric Plate Reader. The cells were loaded with either a Ca2+-sensitive fluorescent dye or the thallium responsive dye and the plates were washed and placed into a suitable kinetic plate reader. For human mGluR4 assays, a fluorescence baseline was established for 3-5 seconds, the disclosed compounds were then added to the cells, and the response in cells was measured. Approximately two and a half minutes later, a concentration of mGluR4 orthosteric agonist (e.g. glutamate or L-AP4) eliciting approximately 20% (EC20) of the maximal agonist response was added to the cells, and the response was measured. Two minutes later, a concentration of mGluR4 agonist (e.g. glutamate or L-AP4) eliciting 80% (EC80) of the maximal agonist response was added to the cells, and the response was measured. For rat mGluR4/GIRK experiments, a baseline was established for approximately five seconds, disclosed compounds were added, and either an EC20 or EC80 concentration of agonist was added approximately two and one half minutes later.
# The above described assay operated in two modes. In the first mode, a range of concentrations of the disclosed compounds are added to cells, followed by a single fixed concentration of agonist. If the compound acts as a potentiatior, an EC50 value for potentiation and a maximum extent of potentiation by the compound at this concentration of agonist is determined by non-linear curve fitting. If the compound acts as a noncompetitive antagonist, an IC50 value is determined by non-linear curve fitting. In the second mode, several fixed concentrations of the disclosed compounds are added to various wells on a plate, followed by a range in concentrations of agonist for each concentration of disclosed compound. The EC50 values for the agonist at each concentration of compound are determined by non-linear curve fitting. A decrease in the EC50 value of the agonist with increasing concentrations of the sample compound (a leftward shift of the agonist concentration-response curve) is an indication of the degree of mGluR4 potentiation at a given concentration of the sample compound. A decrease in the maximal response of the agonist with increasing concentrations of the sample compounds, with or without a rightward shift in agonist potency, is an indication of the degree of noncompetitive antagonism at mGluR4. The second mode also indicates whether the sample compounds also affect the maximum response to mGluR4 to agonists.
# T1 sequence (Q14833 33-912): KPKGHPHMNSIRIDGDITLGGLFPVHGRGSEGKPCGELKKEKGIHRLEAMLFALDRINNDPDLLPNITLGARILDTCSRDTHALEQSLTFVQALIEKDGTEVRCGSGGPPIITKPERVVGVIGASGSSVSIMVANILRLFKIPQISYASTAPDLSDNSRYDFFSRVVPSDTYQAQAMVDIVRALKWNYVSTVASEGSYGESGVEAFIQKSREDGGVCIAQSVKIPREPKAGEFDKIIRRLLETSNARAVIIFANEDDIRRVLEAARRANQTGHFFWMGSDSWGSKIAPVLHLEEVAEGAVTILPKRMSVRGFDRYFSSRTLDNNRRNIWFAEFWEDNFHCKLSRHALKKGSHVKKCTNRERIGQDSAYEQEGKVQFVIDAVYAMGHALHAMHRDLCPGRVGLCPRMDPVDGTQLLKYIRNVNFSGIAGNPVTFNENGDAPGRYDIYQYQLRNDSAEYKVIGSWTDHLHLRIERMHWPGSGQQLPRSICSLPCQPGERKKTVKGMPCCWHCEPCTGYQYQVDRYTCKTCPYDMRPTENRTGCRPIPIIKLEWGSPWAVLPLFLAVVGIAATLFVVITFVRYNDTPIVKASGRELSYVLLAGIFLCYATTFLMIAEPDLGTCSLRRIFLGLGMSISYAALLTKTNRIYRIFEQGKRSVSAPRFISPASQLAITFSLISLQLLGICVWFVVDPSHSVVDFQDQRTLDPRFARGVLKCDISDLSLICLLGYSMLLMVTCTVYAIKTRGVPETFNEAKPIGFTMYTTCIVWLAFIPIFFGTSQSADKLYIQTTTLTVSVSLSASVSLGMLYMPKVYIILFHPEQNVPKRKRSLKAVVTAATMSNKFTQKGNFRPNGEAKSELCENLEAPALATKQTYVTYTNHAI
row,SMILES,EC50
1,"O=S(=O)(Cc1ccc(Cl)cc1Cl)c1cc2nc(-c3ccccn3)[nH]c2cc1Cl [Example 23, 6-chloro-5-((2,4-dichlorobenzyl)sulfonyl)-2-(pyridin-2-yl)-1H-benzo[d]imidazole]",1520 nM
2,"O=S(=O)(Cc1ccccc1Cl)c1ccc2[nH]c(-c3ncccc3F)nc2c1 [Example 16, 5-((2-chlorobenzyl)sulfonyl)-2-(3-fluoropyridin-2-yl)-1H-benzo[d]imidazole]",221 nM
3,"O=S(=O)(Cc1ccccc1Cl)c1ccc2[nH]c(-c3cscn3)nc2c1 [Example 13, 4-(5-((2-chlorobenzyl)sulfonyl)-1H-benzo[d]imidazol-2-yl)thiazole]",1840 nM
4,"O=S(=O)(Cc1ccccc1Cl)c1ccc2[nH]c(-c3nccs3)nc2c1 [Example 12, 2-(5-((2-chlorobenzyl)sulfonyl)-1H-benzo[d]imidazol-2-yl)thiazole]",1450 nM
5,"O=C(Nc1ccc(S(=O)(=O)Cc2ccccc2Cl)cc1)c1cccc(Cl)n1 [Example 30, 6-chloro-N-(4-((2-chlorobenzyl)sulfonyl)phenyl)picolinamide]",1100 nM
6,"O=S(=O)(Cc1ccc(F)cc1F)c1ccc2[nH]c(-c3ccccn3)nc2c1 [Example 8, 5-((2,4-difluorobenzyl)sulfonyl)-2-(pyridin-2-yl)-1H-benzo[d]imidazole]",209 nM
7,"O=S(=O)(Cc1c(F)cccc1Cl)c1ccc2[nH]c(-c3ccccn3)nc2c1 [Example 22, 5-((2-chloro-6-fluorobenzyl)sulfonyl)-2-(pyridin-2-yl)-1H-benzo[d]imidazole]",55.3 nM
8,"O=S(=O)(Cc1c(F)cccc1F)c1ccc2[nH]c(-c3ccccn3)nc2c1 [Example 9, 5-((2,6-difluorobenzyl)sulfonyl)-2-(pyridin-2-yl)-1H-benzo[d]imidazole]",155 nM
9,"O=S(=O)(Cc1ccccc1Cl)c1ccc2[nH]c(-c3ncc(F)cc3F)nc2c1 [Example 14, 5-((2-chlorobenzyl)sulfonyl)-2-(3,5-difluoropyridin-2-yl)-1H-benzo[d]imidazole]",450 nM
10,"O=C(Nc1ccc(S(=O)(=O)Cc2ccccc2Cl)cc1)c1ccccn1 [Example 27, N-(4-((2-chlorobenzyl)sulfonyl)phenyl)picolinamide]",237 nM
11,"O=S(=O)(Cc1cccc(Cl)c1F)c1ccc2[nH]c(-c3cccc[n+]3O)nc2c1 [Example 20, 2-(5-((3-chloro-2-fluorobenzyl)sulfonyl)-1H-benzo[d]imidazol-2-yl)-1-hydroxypyridin-1-ium]",1060 nM
12,"Clc1ccccc1CSc1ccc2[nH]c(-c3ccccn3)nc2c1 [Example 1, 5-(2-Chlorobenzylthio)-2-(pyridin-2-yl)-1H-benzo[d]imidazole]",2480 nM
13,"O=S(=O)(Cc1ccc(Cl)cc1Cl)c1ccc2[nH]c(-c3ccccn3)nc2c1 [Example 6, 5-((2,4-dichlorobenzyl)sulfonyl)-2-(pyridin-2-yl)-1H-benzo[d]imidazole]",56.8 nM
14,"O=S(=O)(Cc1ccccc1Cl)c1cc2nc(-c3ccccn3)[nH]c2cc1Cl [Example 5, 6-chloro-5-((2-chlorobenzyl)sulfonyl)-2-(pyridin-2-yl)-1H-benzo[d]imidazole]",350 nM
15,"[O-][S+](Cc1ccccc1Cl)c1cc2nc(-c3ccccn3)[nH]c2cc1Cl (stereo not shown) [Example 17, 6-chloro-5-((2-chlorobenzyl)sulfinyl)-2-(pyridin-2-yl)-1H-benzo[d]imidazole]",2410 nM
16,"O=S(=O)(Cc1ccccc1Cl)c1ccc2[nH]c(-c3cccc(Cl)n3)nc2c1 [Example 11, 5-((2-chlorobenzyl)sulfonyl)-2-(6-chloropyridin-2-yl)-1H-benzo[d]imidazole]",75.4 nM

row,SMILES,EC50
1,"O=S(=O)(Cc1ccccc1Cl)c1cc2nc(-c3ccccn3)[nH]c2cc1F [Example 25, 5-((2-chlorobenzyl)sulfonyl)-6-fluoro-2-(pyridin-2-yl)-1H-benzo[d]imidazole]",341 nM
2,"O=C(Nc1ccc(S(=O)(=O)Cc2ccccc2Cl)cc1)c1ccco1 [Example 28, N-(4-((2-chlorobenzyl)sulfonyl)phenyl)furan-2-carboxamide]",427 nM
3,"O=S(=O)(Cc1c(F)cccc1Cl)c1cc2nc(-c3ccccn3)[nH]c2cc1Cl [Example 24, 6-chloro-5-((2-chloro-6-fluorobenzyl)sulfonyl)-2-(pyridin-2-yl)-1H-benzo[d]imidazole]",112 nM
4,"O=S(=O)(Cc1ccccc1Cl)c1ccc2[nH]c(-c3cccc(F)n3)nc2c1 [Example 15, 5-((2-chlorobenzyl)sulfonyl)-2-(6-fluoropyridin-2-yl)-1H-benzo[d]imidazole]",927 nM
5,"Fc1ccccc1CSc1ccc2[nH]c(-c3ccccn3)nc2c1 [Example 3, 5-((2-fluorobenzyl)thio)-2-(pyridin-2-yl)-1H-benzo[d]imidazole]",2450 nM
6,"O=S(=O)(Cc1cc(F)c(F)cc1F)c1ccc2[nH]c(-c3ccccn3)nc2c1 [Example 10, 2-(pyridin-2-yl)-5-((2,4,5-trifluorobenzyl)sulfonyl)-1H-benzo[d]imidazole]",462 nM
7,"O=S(=O)(Cc1ccccc1F)c1ccc2[nH]c(-c3ccccn3)nc2c1 [Example 4, 5-((2-fluorobenzyl)sulfonyl)-2-(pyridin-2-yl)-1H-benzo[d]imidazole]",330 nM
8,"Cc1cccc(C(=O)Nc2ccc(S(=O)(=O)Cc3ccccc3Cl)cc2)n1 [Example 32, N-(4-((2-chlorobenzyl)sulfonyl)phenyl)-6-methylpicolinamide]",5400 nM
9,"O=S(=O)(Cc1ccc(Cl)cc1F)c1cc2nc(-c3ccccn3)[nH]c2cc1Cl [Example 26, 6-chloro-5-((4-chloro-2-fluorobenzyl)sulfonyl)-2-(pyridin-2-yl)-1H-benzo[d]imidazole]",446 nM
10,"O=S(=O)(Cc1cccc(Cl)c1F)c1ccc2[nH]c(-c3ccccn3)nc2c1 [Example 21, 5-((3-chloro-2-fluorobenzyl)sulfonyl)-2-(pyridin-2-yl)-1H-benzo[d]imidazole]",194 nM
11,"O=S(=O)(Cc1ccccc1Cl)c1ccc2[nH]c(-c3ccccn3)nc2c1 [Example 2, 5-(2-Chlorobenzylsulfonyl)-2-(pyridin-2-yl)-1H-benzo[d]imidazole]",421 nM
12,"O=S(=O)(Cc1cc(F)ccc1F)c1ccc2[nH]c(-c3ccccn3)nc2c1 [Example 7, 5-((2,5-difluorobenzyl)sulfonyl)-2-(pyridin-2-yl)-1H-benzo[d]imidazole]",434 nM
13,"O=S(=O)(Cc1ccc(Cl)cc1F)c1ccc2[nH]c(-c3ccccn3)nc2c1 [Example 19, 5-((4-chloro-2-fluorobenzyl)sulfonyl)-2-(pyridin-2-yl)-1H-benzo[d]imidazole]",82.3 nM
14,"O=C(Nc1ccc(S(=O)(=O)Cc2ccccc2Cl)cc1)c1ncccc1F [Example 31, N-(4-((2-chlorobenzyl)sulfonyl)phenyl)-3-fluoropicolinamide]",730 nM
15,"O=S(=O)(Cc1ccc(Cl)cc1F)c1ccc2[nH]c(-c3cccc[n+]3O)nc2c1 [Example 18, 2-(5-((4-chloro-2-fluorobenzyl)sulfonyl)-1H-benzo[d]imidazol-2-yl)-1-hydroxypyridin-1-ium]",272 nM
